Assay results as given in patent US20210077562A1, “ETBR ANTAGONIST COMPOUNDS, COMPOSITIONS, AND USES” (ENB Therapeutics, Inc., priority 2018, published 2021).

Key:
[1] = cited from earlier work
[2] = system: V600E+ (BRAF mutated) SM1 tumor; assay: SM1 tumor model, in vivo tumor growth curve over 21 days; set-up: species or system C57BL/6 mice
From the text: In this study 6-8 week old female C57BL/6 mice were inoculated with SM1 tumor fragments (TME* components present).

Row | SMILES | degradation in plasma [1] | tumor growth (FIG. 3), standard combination ([2]; dabrafenib 30 mg/kg daily by oral gavage + immune checkpoint inhibitors 10 mg/kg Q4D IP, 21 days) | efficacy on addition to anti-PD1/ETBR antagonist combination ([2]; three-part combination therapy)
1 | CCCC[C@@H](NC(=O)[C@@H](Cc1cn(C(=O)OC)c2ccccc12)NC(=O)[C@H](CC(C)(C)C)NC(=O)N1[C@H](C)CCC[C@@H]1C)C(=O)O [BQ788, (2R)-2-[[(2R)-2-[[(2S)-2-[[(2R,6S)-2,6-dimethylpiperidine-1-carbonyl]amino]-4,4-dimethylpentanoyl]amino]-3-(1-methoxycarbonylindol-3-yl)propanoyl]amino]hexanoic acid] | rapidly degraded in plasma |  | 
2 | CC(C)(C)c1nc(-c2cccc(NS(=O)(=O)c3c(F)cccc3F)c2F)c(-c2ccnc(N)n2)s1 [dabrafenib] |  | failed to shrink tumors but demonstrated intermediate tumor growth inhibition | impairs efficacy
